Measured values published in patent publication US20130190190A1, “MOLECULAR TARGETS FOR MODULATING INTRAOCCULAR PRESSURE AND DIFFERENTIATION OF STEROID RESPONSES VERSUS NON-RESPONDERS” (priority 2007, published 2013).

Assay: Intraocular pressure (IOP) change in study eyes of patients after a single intravitreal triamcinolone acetonide (IVTA) injection
Type: in vivo, human
Conditions: 56 eyes
Description: Patients who were recruited were offered treatment with IVTA for various retinal diseases or who had received IVTA in the past. Each patient was treated with IVTA, 4 mg in 0.1 cc, for a variety of indications, at the discretion of the treating physician. Inclusion criteria included age greater than 18 years and the ability to give appropriate informed consent. Exclusion criteria included prior pars plana vitrectomy in the study eye, anterior-segment neovascularization in the study eye, the use of any medication intended to lower IOP in the study eye, or a history of glaucoma, suspected glaucoma, or ocular hypertension in the study eye. All IOP measurements were as per the treating physician's standard practice, typically either applanation tonometry or Tono-pen (Reichert, Depew, N.Y.). No standardized IOP measurement protocol was followed. Intraocular pressure (TOP) was recorded in the study eye prior to treatment with IVTA (baseline IOP). Follow-up was performed at the discretion of the treating physician. On each subsequent visit, IOP was recorded (follow-up IOP) for up to 1 year, or until the study eye was treated with any subsequent intraocular surgery, any subsequent intravitreal injection, or any medication intended to lower IOP. Therefore, during the time period relevant to this study, each eye received only one intravitreal injection. All treatment decisions were at the discretion of the treating physician. The highest follow-up IOP was recorded (maximum IOP). The primary outcome measure was the difference between maximum IOP and baseline IOP was calculated (A IOP), with a positive value indicating a rise in IOP.

With CC1(C)O[C@@H]2C[C@H]3[C@@H]4CCC5=CC(=O)C=C[C@]5(C)[C@@]4(F)[C@@H](O)C[C@]3(C)[C@]2(C(=O)CO)O1 [IVTA, triamcinolone acetonide] the “Mean Δ IOP (maximum IOP minus baseline IOP)” value (IVTA 4 mg in 0.1 cc intravitreal, follow-up up to 1 year, positive value = rise in IOP) was 7 mmHg, the “Eyes with Δ IOP greater than 10 mmHg” value (IVTA 4 mg intravitreal, follow-up up to 1 year, 9 eyes) was 16% and the “Eyes with Δ IOP less than 5 mmHg” value (IVTA 4 mg intravitreal, follow-up up to 1 year, 20 eyes) was 36%. For the same compound, the “Eyes with Δ IOP 5-10 mmHg” value (IVTA 4 mg intravitreal, follow-up up to 1 year, 27 eyes) was 48% and the “Mean maximum follow-up IOP” value (patients with retinal diseases, IVTA 4 mg in 0.1 cc, one intravitreal injection, highest IOP in follow-up up to 1 year, mean baseline IOP 15 mmHg) was 22 mmHg.
